The values that follow are results of earlier work, collected in patent US20200061085A1, “COMPOSITION FOR TREATMENT, INHIBITION AND ATTENUATION OF MELANOMA VIRUS AND PREVENTION OF SKIN CANCERS” (priority 2018, published 2020).

The conditions of the series: STS given exogenously, 90 years of cumulative uses (renal, cyanide, eclampsia).

Turning to sodium thiosulfate [STS], the fatalities entry was “no fatalities”.
